Results reported in US20090043129A1 (priority 2005, published 2009).
pEC50, pIC50, pKi: −log10 of the molar value. Read-outs that look alike come from different tables or passages of the source.

Columns and labels:
[1] = test system: Anandamide Membrane Transporter (AMT); assay: Anandamide uptake by RBL-2H3 cells; type: cell-based; conditions: anandamide uptake, read-out: AMT IC50
Description: Assay for the Anandamide Membrane Transporter (AMT)
The effect of the compounds on the uptake of anandamide by the RBL-2H3 cells was studied as described (Di Marzo et al., 2002). Cells were incubated with [^14C]anandamide (4 μM) for 5 minutes at 37° C., in the presence or absence of varying concentrations of the inhibitors. Residual [^14C]anandamide in the incubation media after extraction with CHCl3/CH3OH (2:1 by volume) was used as a measure of the anandamide that was taken up by cells. Data are expressed as the concentration that produces 50% of inhibition of anandamide uptake (IC50) calculated with GraphPad.

CB1 receptors = target: T1, CB1 receptors (Mus musculus, UniProt P47746); assay: [35S]GTP-γ-S binding, mouse brain membranes; type: biochemical
T1 construct: using mouse brain membranes containing CB1 receptors; from tissue; host or cells: mouse brain membranes
Description: These assays were performed as previously described (Thomas et al., 2005), using mouse brain membranes containing CB1 receptors or CHO cells stably over-expressing the human recombinant CB2 receptor (10 μg/ml protein), 0.7 nM [^35S]GTP-γ-S and 320 μM GDP, and a final assay volume of 250 μl. Results were compared to the potent CB1 and CB2 receptor agonist CP55940, purchased from Cayman Chemicals, Ann Arbour, Mich., USA.

[2] = target: T2, human recombinant CB1 receptor (Homo sapiens, UniProt P21554); type: binding; parameters: purchased Perkin-Elmer; host or cells: COS cells
[3] = target: T3, human recombinant CB2 receptor (Homo sapiens, UniProt P34972); assay: CB2 binding, [3H]CP55,940 displacement, membranes from transfected COS cells; parameters: purchased Perkin-Elmer; host or cells: COS cells; conditions: values in nM
[4] = target: T2, human recombinant CB1 receptor; assay: Forskolin-induced cAMP formation in CHO cells over-expressing hCB1; type: cell-based; parameters: expressed in transfected cells; host or cells: CHO cells
Description: (§1) After incubation, 800 μl of methanol were added, cells were extracted and cyclic AMP was determined with a cyclic AMP assay kit (Amersham, UK), in accordance with the supplier's recommendations.

[5] = target: T3, human recombinant CB2 receptor; assay: Forskolin-induced cAMP formation in CHO cells over-expressing hCB2; type: cell-based; parameters: expressed in transfected cells; host or cells: CHO cells (stably over-expressing)
Description: as §1

[6] = target: T3, human recombinant CB2 receptor; assay: [35S]GTP-γ-S binding, CHO cells over-expressing hCB2; type: biochemical; parameters: expressed in transfected cells; host or cells: CHO cells (stably over-expressing); conditions: for antagonism of CP55940-induced stimulation of GTP-γ-S binding (in words) / effect on GTP-γ-S-binding (in words): CHO hCB2; for functional behaviour at CB2 receptors: Test 1 and Test 2, CHO hCB2
Source text: Results were compared to the potent CB1 and CB2 receptor agonist CP55940, purchased from Cayman Chemicals, Ann Arbour, Mich., USA.

[7] = target: T4, Fatty Acid Amide Hydrolase (FAAH) (Rattus norvegicus, UniProt P97612); assay: biochemical
T4 sequence (P97612 1-579): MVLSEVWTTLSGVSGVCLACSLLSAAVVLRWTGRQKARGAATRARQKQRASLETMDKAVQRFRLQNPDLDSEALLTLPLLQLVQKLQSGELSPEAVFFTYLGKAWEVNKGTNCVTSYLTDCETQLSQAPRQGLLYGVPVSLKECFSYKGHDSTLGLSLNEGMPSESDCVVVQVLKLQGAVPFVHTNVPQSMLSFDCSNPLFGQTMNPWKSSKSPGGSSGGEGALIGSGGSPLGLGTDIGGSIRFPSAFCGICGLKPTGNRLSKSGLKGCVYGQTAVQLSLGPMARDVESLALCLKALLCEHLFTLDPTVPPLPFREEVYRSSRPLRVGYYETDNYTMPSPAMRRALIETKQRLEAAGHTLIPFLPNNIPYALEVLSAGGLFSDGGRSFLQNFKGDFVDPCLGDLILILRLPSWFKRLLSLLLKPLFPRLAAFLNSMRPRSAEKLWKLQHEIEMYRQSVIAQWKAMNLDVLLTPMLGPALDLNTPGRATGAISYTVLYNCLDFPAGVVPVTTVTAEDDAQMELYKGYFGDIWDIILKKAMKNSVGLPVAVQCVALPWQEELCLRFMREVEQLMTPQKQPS
Description: Assay for Fatty Acid Amide Hydrolase (FAAH)
The effect of compounds on the enzymatic hydrolysis of [^14C]anandamide (6 μM) was studied using membranes prepared from rat brain incubated with increasing concentrations of compounds in 50 mM Tris-HCl, pH 9, for 30 minutes at 37° C. (Di Marzo et al., 2002). [^14C]ethanolamine produced from [^14C]anandamide hydrolysis was measured counting the scintillation of the aqueous phase after extraction of the incubation mixture with 2 volumes of CHCl3/CH3OH (2:1 by volume). […]

[8] = target: T5, CB1 cannabinoid receptors (Mus musculus, UniProt P47746); assay: Forskolin-induced cyclic AMP in N18TG2 neuroblastoma cells; type: cell-based
T5 construct: N18TG2 mouse neuroblastoma cells, which constitutively and selectively express the CB 1 cannabinoid receptors; endogenous in cells; host or cells: N18TG2 mouse neuroblastoma cells
Description: as §1

[9] = forskolin-induced cAMP formation, CHO hCB2

T1 sequence (P47746 whole entry): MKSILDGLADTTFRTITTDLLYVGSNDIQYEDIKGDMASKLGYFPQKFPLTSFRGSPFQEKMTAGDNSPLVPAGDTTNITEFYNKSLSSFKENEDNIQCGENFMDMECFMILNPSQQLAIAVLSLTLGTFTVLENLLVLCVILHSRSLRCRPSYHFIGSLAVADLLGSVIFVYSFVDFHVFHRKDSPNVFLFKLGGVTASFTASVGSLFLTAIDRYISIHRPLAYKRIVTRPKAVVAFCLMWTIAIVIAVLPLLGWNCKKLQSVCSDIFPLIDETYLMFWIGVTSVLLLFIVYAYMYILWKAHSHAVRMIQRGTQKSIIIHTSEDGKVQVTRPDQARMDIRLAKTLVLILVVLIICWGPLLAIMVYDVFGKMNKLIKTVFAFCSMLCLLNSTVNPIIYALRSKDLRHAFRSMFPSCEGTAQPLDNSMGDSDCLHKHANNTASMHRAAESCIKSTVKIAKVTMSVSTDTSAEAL
T2 sequence (P21554 whole entry): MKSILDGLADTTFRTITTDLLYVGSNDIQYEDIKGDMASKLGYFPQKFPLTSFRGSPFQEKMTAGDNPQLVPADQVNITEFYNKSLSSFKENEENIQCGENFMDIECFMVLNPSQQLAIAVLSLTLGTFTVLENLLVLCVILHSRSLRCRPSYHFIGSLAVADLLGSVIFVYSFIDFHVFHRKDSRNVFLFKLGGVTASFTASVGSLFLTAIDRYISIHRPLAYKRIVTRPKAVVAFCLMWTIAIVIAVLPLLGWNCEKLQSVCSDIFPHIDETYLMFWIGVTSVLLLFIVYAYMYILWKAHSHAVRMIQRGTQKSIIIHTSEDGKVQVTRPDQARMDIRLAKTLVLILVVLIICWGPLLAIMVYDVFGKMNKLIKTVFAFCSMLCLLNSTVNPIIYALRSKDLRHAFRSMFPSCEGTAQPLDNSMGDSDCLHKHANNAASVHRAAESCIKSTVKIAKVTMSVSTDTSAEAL
T3 sequence (P34972 whole entry): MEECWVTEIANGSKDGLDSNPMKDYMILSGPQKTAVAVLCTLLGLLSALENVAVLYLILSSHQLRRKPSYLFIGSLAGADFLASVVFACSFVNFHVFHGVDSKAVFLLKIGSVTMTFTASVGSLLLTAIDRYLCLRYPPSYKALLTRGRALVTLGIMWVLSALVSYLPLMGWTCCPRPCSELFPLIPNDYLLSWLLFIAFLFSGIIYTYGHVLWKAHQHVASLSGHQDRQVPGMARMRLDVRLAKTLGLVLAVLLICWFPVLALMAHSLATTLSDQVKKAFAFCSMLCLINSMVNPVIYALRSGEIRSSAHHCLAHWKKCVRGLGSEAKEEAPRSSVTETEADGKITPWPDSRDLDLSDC
T5 sequence (P47746 whole entry): as the sequence (P47746 whole entry) above

Row | Compound | pIC50 [1] | functional behaviour in GTP-γ-S-binding (CB1 receptors; mouse brain membranes) | Ki [3] [nM] | hCB2 % effect with 10 μM [5, 9] [%] | effect on forskolin-induced cAMP formation (in words) ([5]; CHO hCB2) | antagonism of CP55940-induced stimulation of GTP-γ-S binding (in words) [6] | effect on GTP-γ-S-binding (in words) [6] | functional behaviour at CB2 receptors [6] | further results
1 | CCCCCCc1ccc(O)cc1OCCCCCCCCCCC(=O)NC1CC1 [Compound 52, 11-(2-Hexyl-5-hydroxy-phenoxy)-undecanoic acid cyclopropylamide] | 4.89 | agonist action | 30 | 5 | no significant effect | block the effect of CP55940 | no significant stimulation or inhibition | neutral (“silent”) antagonists | pIC50 (CB1 receptors): 7.00; Ki ([2]; values in nM): 210 nM; pEC50 ([4]; read-out: hCB1 EC50): 5.62; pEC50 ([5]; forskolin-induced cAMP formation, CHO hCB2, read-out: hCB2 EC50): < 5.00
2 | CCCCCc1cc(O)cc(OCCCCCCCCCCC(=O)NC2CC2)c1 [Compound 25, 11-(3-Hydroxy-5-pentyl-phenoxy)-undecanoic acid cyclopropylamide] | 4.77 | agonist action | 13 | 26 | no significant effect | block the effect of CP55940 | no significant stimulation or inhibition | neutral (“silent”) antagonists | pIC50 [7]: < 5.00; pEC50 [8]: 7.89; functional behaviour at CB1 receptors ([8]; N18TG2 cells, cAMP): inverse agonist/antagonist; pIC50 (CB1 receptors; mouse brain membranes, read-out: IC50, stimulation of GTP-γ-S-binding): 6.82; pKi [2]: 8.28; pEC50 [4]: 5.80; hCB1 % effect with 10 μM ([4]; 10 μM, forskolin-induced cAMP formation, CHO hCB1): 63%; functional behaviour at human recombinant CB1 ([4]; Test 1, CHO hCB1, inhibit forskolin-induced cAMP formation): partial agonists; pEC50 [5]: < 5.00
